# Data from patent US20210293825A1, “METHODS FOR PRECISION THERAPEUTIC TARGETING OF HUMAN CANCER CELL MOTILITY AND KITS THEREOF” (UNITED STATES GOVERNMENT AS REPRESENTED BY THE DEPARTMENT …, priority 2018, published 2021).
# Assays:
# [1] = Examination of organ function after a single intravenous dose; format: in vivo; conditions: single IV dose 15, 75 or 125 mg/kg, day 8 and 14
# Protocol: Histologic examination of tissue. Organs of athymic male mice stained with H&E, Trichrome or Giemsa were microscopically examined by a mouse pathologist in a blinded fashion, and toxicity scored using an established semi-quantitative histological scoring system (Knodell, R. G. et al., Hepatology 1, 431-5 (1981)) (FIG. 14). The following clinical chemistry parameters were measured in blood of CD1 male and female mice by Charles River Research Animal Diagnostic Services: cholesterol, triglycerides, alanine aminotransferase (ALT), aspartate aminotransferase (AST), total bilirubin, glucose, phosphorus, total protein, calcium, blood urea nitrogen (BUN), creatinine, albumin, Na, K, Cl, white blood cells (with differential), red blood cells, hemoglobin, and platelets.
# For examination of organ function, studies used cohorts of 22-24 gm N=3 female and N=3 male (i.e., N=6 mice total per dose cohort) CD1 (ICR) mice (Charles River). […] On day 8 and 14, important organs were weighed, and the following parameters measured in blood: cholesterol, triglycerides, alanine aminotransferase (ALT), aspartate aminotransferase (AST), total bilirubin, glucose, phosphorus, total protein, calcium, blood urea nitrogen (BUN), creatinine, albumin, Na, K, Cl, white blood cells (with differential), red blood cells, hemoglobin, platelets.
# [2] = test system: recombinant human protein kinases; assay: Kinex kinase assay system (inhibition of ATP binding); conditions: tested at 1 and 10 μM
# Protocol: Kinase assay system #2. The Kinex™ kinase assay system (Kinexus Proteomics Company). This platform uses recombinant human protein kinases expressed in an insect expression system, thus allowing an avenue for post-translational modification. Also, this platform measures inhibition of ATP binding. This platform putatively measured 200 different kinases, and we tested KBU2046 at 1 and 10 μM. […] There were two important technical issues. First, at 10 μM KBU2046 interfered with the colorimetric-based readout of the assay. […] Conclusions: there was no evidence that KBU2046 inhibits kinase function by competing for ATP binding in the active site.
# [3] = test system: PC3-luc cells; assay: Prostate cancer intracardiac injection bone metastasis model; format: in vivo, athymic mice
# Protocol: Athymic mice were given intracardiac (IC) injections of PC3-luc cells on day 0 under ultrasound guidance, and underwent weekly IVIS imaging starting seven days post injection. Cohorts of N=20 control, N=20 Pre (treatment from 3 days prior to IC injection through end of experiment), N=10 Pre7Stop (treatment from 3 days prior to IC injection through 7 days post IC injection) and N=10 Post treatment (treatment from 3 days post-IC injection through end of experiment) mice were dosed with 80 mg/kg KBU2046 daily by oral gavage and mock treated with vehicle all other times. FIG. 3c depicts whole body and FIG. 3b depicts mandible flux as determined from weekly IVIS imaging. […] Arrows denote areas of bone destruction in controls, and corresponding areas in the Pre mouse. Student's t test (b-c) and Fisher's exact test (d) P values between the denoted cohorts are shown.
# Prostate cancer: intracardiac (IC) injection. IC injection of 4.0×10^5 PC3-Luc cells into male 6-8 week old athymic mice with IVIS imaging was performed as described (Chu, K. et al., Mol Cancer Res 6, 1259-67 (2008)), and was done so under ultrasound guidance (FIG. 15). Mice were treated pre- and/or post-IC injection, as indicated. The pretreatment cohort emulates a metastasis naïve model wherein cell motility is required in order for cells to invade into a distant organ, in this case the jaw bone, for which this model is widely used. If KBU2046 were inhibiting cell motility, then in this model it would act to inhibit metastasis formation. In contrast, with the post implantation cohort, cells have already completed invasion into the jaw bone, and distant metastasis have been established. […] IVIS imaging was performed 30 minutes after IC injection to confirm systemic distribution of cells, and thereafter weekly for 4 weeks starting seven days post injection, allowing real time tracking of metastasis development and growth. Computed Tomograpgy (CT) (Inveon, Seimens) radiographic imaging was performed on some mice, as indicated, and resultant images analyzed in a blinded fashion using Inveon Research Workplace 4.2 visualization/analysis software and ImageJ. […] Experimental groups were randomly assigned to cages prior to the initiation of the study. CT images were analyzed in a blinded fashion to determine total bone loss using both the Invenon Research Workplace 4.2 visualization/analysis software and ImageJ. Specifically, to assess bone loss in an unbiased manor, an operator randomly loaded images into the system and blocked out identifying information prior to analysis by two separate blinded individuals.
# [4] = target: T1, HSP90β/CDC37 heterocomplexes (Homo sapiens, UniProt P08238+Q16543); assay: DARTS assay with HSP90β and CDC37 combined; format: binding
# T1 construct: made in house; host or cells: E. coli (Rosetta BL-21 for HSP90B, BL-21 DE-3 for CDC37)
# T1 sequence (P08238 whole entry): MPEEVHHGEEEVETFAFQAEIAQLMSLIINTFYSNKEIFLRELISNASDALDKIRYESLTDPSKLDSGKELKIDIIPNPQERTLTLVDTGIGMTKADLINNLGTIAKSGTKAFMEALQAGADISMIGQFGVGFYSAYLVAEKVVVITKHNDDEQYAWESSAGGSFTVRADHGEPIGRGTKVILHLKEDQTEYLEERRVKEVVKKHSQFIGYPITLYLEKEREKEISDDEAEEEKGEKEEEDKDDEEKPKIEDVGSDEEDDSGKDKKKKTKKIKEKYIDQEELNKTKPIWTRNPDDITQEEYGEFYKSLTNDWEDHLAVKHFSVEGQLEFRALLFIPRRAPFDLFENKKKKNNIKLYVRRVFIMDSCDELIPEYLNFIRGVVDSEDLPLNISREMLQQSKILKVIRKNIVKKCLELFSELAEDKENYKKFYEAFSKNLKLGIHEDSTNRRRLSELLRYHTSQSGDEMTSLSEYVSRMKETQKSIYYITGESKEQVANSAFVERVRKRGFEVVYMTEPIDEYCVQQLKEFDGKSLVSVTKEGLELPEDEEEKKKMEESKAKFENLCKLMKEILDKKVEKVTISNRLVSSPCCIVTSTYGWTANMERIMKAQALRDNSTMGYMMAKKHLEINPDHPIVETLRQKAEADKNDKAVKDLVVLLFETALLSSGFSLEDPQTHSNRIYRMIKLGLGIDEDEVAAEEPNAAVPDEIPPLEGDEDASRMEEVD
# T1 sequence (Q16543 whole entry): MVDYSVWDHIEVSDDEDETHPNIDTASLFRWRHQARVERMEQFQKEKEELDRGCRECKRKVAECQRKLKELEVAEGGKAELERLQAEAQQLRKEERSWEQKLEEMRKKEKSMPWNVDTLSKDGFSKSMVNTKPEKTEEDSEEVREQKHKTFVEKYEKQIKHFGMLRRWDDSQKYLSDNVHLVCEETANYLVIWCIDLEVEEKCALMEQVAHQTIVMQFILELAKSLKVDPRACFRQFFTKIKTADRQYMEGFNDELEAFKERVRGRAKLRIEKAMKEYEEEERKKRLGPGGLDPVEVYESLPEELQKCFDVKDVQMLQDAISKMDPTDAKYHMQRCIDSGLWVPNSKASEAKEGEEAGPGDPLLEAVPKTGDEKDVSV
# Protocol: Equimolar amounts of HSP90β and CDC37 protein were pre-incubated with KBU2046, and resultant thermolysin reaction products were detected by silver stain following SDS-PAGE.
# DARTS provides a sensitive measure of ligand-induced changes in protein structure and dynamics by measuring the ability of a ligand to protect its target from protease digestion (Lomenick, B. et al., Proc Natl Acad Sci USA 106, 21984-9 (2009)). […] The intensity of the CDC37 band increased, that of the HSP90β degradation product decreased, and both effects were statistically significant, concentration-dependent and were evident at 10 nM. […] Further, these findings also indicate that KBU2046 is not acting as a classical HSP90 inhibitor.
# Biophysical and Biochemical Binding Assays. Fluorescent thermal shift (Krishna, S. N. et al., PLoS One 8, e81504 (2013)), isothermal titration calorimetry (Chavez, J. D. et al., Mol Cell Proteomics 12, 1451-67 (2013)), and biolayer interferometry assays (Makowska-Grzyska, M. et al., Biochemistry 51, 6148-63 (2012)), were performed using MEK4EE (37-399, S257E, T261E) cloned into pMCSG7 and KRX Competent E. coli cells (Promega Inc.) and full-length HSP90B and CDC37 vectors and Rosetta BL-21 and BL-21 DE-3 competent E. coli cells, respectively. […]
# [5] = Pre cohort, 80 mg/kg daily oral gavage
structure (smiles),measurement,setting,value
"O=C1c2ccccc2OCC1c1ccc(F)cc1 (racemic) [KBU2046, (±)-3(4-fluorophenyl)chroman-4-one]",organ weights and blood parameters,[1],No abnormal alterations in any of these parameters were observed
same,inhibition of ATP binding,[2],completely negative
same,metastasis to the total body and to the jaw,"[3]; Post cohort, treatment from 3 days post-IC injection",do not differ from control mice
same,jaw metastasis,[3]; Pre7Stop cohort,jaw metastasis is significantly decreased compared to control
same,total body metastasis,"[3]; Pre7Stop cohort, compared to control and Post cohorts",total body metastasis is significantly decreased
same,metastasis to the mandible,[3]; [5],decreased metastasis to the mandible
same,total metastatic burden (whole body flux),[3]; [5],significant decrease in total metastatic burden
same,"destruction of bone (mandible, Computed Tomography)","[3]; Pre cohort, week 4",decreased destruction of bone
same,concentration at which effects on CDC37 and HSP90β bands were evident,[4]; concentration-dependent,10 nM
same,protection from thermolysin digestion,[4]; equimolar HSP90β and CDC37,protected both proteins from digestion
